Test results published in PMC6058519, “Retro-inverso follicle-stimulating hormone peptide-mediated polyethylenimine complexes for targeted ovarian cancer gene therapy” (Drug Delivery, 2018).
Where no end group is shown, it is not given here.

Tests used:
[1] = In vitro stability of peptides in 20% rat serum; assay type: in vitro ADME; settings: 37 °C, peptide 0.5 mg/mL, incubation up to 12 h, RP-HPLC C18, UV 214 nm, triplicate
Experimental: The L-FP21 and D-FP21 peptides were diluted to 0.5 mg/mL and incubated at 37 °C for 12 h for the biostability test against 20% rat serum. At predetermined time intervals, 100 μL of the sample was removed and analyzed using reverse-phase high-performance liquid chromatography (HPLC; Waters Acquity H-Class Bio, Waters Co. Ltd., Milford, MA) on a bridged ethylene hybrid (BEH) C18 column (2.1 mm ×50 mm, 1.7 μm) using a gradient method. The mobile phase A was purified water containing 0.1% (v/v) formic acid (FA). The mobile phase B was acetonitrile containing 0.1% FA. The 30-min linear elution gradient ran from 5% B to 45% B in […] at a flow rate of 0.6 mL/min with a detection wavelength of 214 nm. We used aminopeptidase to further investigate the stability of L-FP21 or D-FP21 in proteolytic enzymes. The aminopeptidase was added with a final concentration of 1 μg/mL. The peptides were then analyzed as described above. All the experiments were performed in triplicate.

[2] = target: T1, Aminopeptidase M (leucine aminopeptidase, microsomal from porcine kidney) (Sus scrofa, UniProt P15145); experiment: In vitro stability of peptides against aminopeptidase M; assay type: in vitro ADME; settings: aminopeptidase M 1 μg/mL, 37 °C, peptide 0.5 mg/mL, incubation up to 12 h, RP-HPLC C18, UV 214 nm, triplicate
T1 construct: purchased Sigma-Aldrich; host or cells: porcine kidney microsomes (tissue-derived)
T1 sequence (P15145 1-963): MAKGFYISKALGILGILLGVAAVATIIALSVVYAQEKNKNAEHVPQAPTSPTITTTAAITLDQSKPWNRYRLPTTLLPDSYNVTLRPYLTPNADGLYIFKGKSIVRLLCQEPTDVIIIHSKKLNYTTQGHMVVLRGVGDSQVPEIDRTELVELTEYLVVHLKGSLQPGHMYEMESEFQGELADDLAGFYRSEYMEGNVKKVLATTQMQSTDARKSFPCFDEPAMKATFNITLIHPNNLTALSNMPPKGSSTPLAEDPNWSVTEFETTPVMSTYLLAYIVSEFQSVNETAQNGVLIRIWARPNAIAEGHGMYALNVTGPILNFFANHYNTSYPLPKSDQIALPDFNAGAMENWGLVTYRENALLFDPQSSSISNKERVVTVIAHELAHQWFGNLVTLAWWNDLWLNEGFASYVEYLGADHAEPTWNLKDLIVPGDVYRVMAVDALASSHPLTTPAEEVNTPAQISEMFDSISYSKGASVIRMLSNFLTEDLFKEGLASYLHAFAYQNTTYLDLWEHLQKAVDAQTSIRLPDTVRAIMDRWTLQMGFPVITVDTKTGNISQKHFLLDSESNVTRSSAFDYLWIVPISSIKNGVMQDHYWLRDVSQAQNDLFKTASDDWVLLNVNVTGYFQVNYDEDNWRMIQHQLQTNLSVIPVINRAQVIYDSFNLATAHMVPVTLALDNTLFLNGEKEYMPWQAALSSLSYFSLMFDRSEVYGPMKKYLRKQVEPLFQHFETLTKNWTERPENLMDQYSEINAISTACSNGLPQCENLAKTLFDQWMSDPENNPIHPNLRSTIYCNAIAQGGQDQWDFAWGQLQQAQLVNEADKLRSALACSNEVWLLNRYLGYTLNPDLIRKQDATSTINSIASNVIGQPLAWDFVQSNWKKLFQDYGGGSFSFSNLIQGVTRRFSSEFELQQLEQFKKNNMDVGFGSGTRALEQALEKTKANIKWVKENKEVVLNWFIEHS
Source text: L-FP21, D-FP21, Rhodamine-L-FP21, and Rhodamine-D-FP21 were purchased from ChinaPeptides (Shanghai, China) (Figure S3). Rat serum was obtained from Jianlun Biology Technology Co. (Guangzhou, China). Aminopeptidase M (leucine aminopeptidase, microsomal from porcine kidney Type VI − S, lyophilized powder, EC 3.4.11.2) and the Endotoxin-free Plasmid Maxiprep Kit used to purify the plasmid DNA before application were obtained from Sigma–Aldrich (USA). Cell Counting Kit-8 (CCK-8 Kit) was purchased from Beyotime Biotechnology (Tianjing, China). Odyssey Blocking Buffer was obtained from LI-COR Biosciences (Lincoln, Nebraska, USA). The plasmids encoding enhanced green fluorescence protein (EGFP; pEGFP-N) were purchased from KeyGEN BioTECH (Nanjing, China). The vector construction of GRO-α shRNA was pcDNA6.2-GW/Emgfp-miR (Invitrogen, Carlsbad, CA), and the target knockdown gene encoding was TGGTTTT GGCCACTG. […]
The L-FP21 and D-FP21 peptides were diluted to 0.5 mg/mL and incubated at 37 °C for 12 h for the biostability test against 20% rat serum. At predetermined time intervals, 100 μL of the sample was removed and analyzed using reverse-phase high-performance liquid chromatography (HPLC; Waters Acquity H-Class Bio, Waters Co. Ltd., Milford, MA) on a bridged ethylene hybrid (BEH) C18 column (2.1 mm ×50 mm, 1.7 μm) using a gradient method. […] The peptides were then analyzed as described above. […]

With YTRDLVYGDPARPGIQGTGTF [L-FP21] the “time to complete degradation in rat serum” value [1] was at most 2 h and the “time to complete degradation in aminopeptidase” value [2] was at most 6 h.
